In patent US9957265B2, “N-(2-cyano heterocyclyl) pyrazolo pyridones as janus kinase inhibitors” (Merck Sharp & Dohme Corp., priority 2013, dated 2018) one finds IC50 data, which are given here for 16 compounds.

For one assay, the target named is JAK2 (Homo sapiens (Human), UniProt O60674). As to the kind of experiment: Jak Biochemical HTRF Assay (JAK2).
In a further assay the target is JAK1 (Homo sapiens (Human), UniProt P23458). As to the kind of experiment: Jak Biochemical HTRF Assay (JAK1). To be noted: recombinant GST-tagged catalytic domain, [ATP] 31.8 μM, unit not given (compound concentrations tested given in nM). The source says:
Jak Biochemical HTRF Assay Protocol
Subsequent reagent additions employed an Agilent Bravo.
On the technique in general: Time-resolved FRET reads energy transfer from a long-lived donor to a nearby acceptor.

Setting [1] is: JAK2 IC50, recombinant GST-tagged catalytic domain, [ATP] 8.5 μM, unit not given (compound concentrations tested given in nM).
The mark [2] stands for this setting: read-out: JAK2 IC50, recombinant GST-tagged catalytic domain, [ATP] 8.5 μM, unit not given (compound concentrations tested given in nM).

Where two headings read alike, the source gives them in different places.

Chain of JAK1 (P23458 875-1153): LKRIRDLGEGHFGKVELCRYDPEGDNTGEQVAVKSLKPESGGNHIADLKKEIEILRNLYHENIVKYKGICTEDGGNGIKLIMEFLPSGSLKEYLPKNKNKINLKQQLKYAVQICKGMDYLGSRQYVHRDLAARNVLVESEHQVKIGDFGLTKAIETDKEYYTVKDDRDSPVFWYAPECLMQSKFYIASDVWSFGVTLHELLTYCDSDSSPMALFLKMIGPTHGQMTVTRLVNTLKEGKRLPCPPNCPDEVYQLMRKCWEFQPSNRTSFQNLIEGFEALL
Chain of JAK2 (O60674 849-1124): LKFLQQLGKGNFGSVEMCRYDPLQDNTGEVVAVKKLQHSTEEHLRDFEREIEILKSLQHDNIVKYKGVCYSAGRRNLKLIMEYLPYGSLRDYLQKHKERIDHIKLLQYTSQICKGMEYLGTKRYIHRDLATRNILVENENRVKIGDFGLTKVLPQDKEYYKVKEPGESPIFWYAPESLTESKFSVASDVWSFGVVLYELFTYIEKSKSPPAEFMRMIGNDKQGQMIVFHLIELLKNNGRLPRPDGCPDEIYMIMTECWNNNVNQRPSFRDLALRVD
Experimental for JAK2: The ability of compounds to inhibit the activity of JAK1, JAK2, JAK3, and TYK2 was measured using a recombinant purified GST-tagged catalytic domain for each enzyme (Invitrogen JAK1 #M4290, JAK2 #M4290, JAK3 #M4290, TYK2 #M4290) in an HTRF format biochemical assay. […] Subsequent reagent additions employed an Agilent Bravo. […] After equilibration, 2 μL of 10×ATP in 1× assay buffer was added to initiate the kinase reaction and the plates were shaken and then incubated at room temperature for 120 minutes. […] After normalization to untreated controls, the percent inhibition of the HTRF signal at each compound concentration was calculated. The plot of percent inhibition versus the log of compound concentration was fit with a 4-parameter dose response equation to calculate IC50 values.
Final reaction conditions were:

For the compound `CC(C)(C)S(=O)(=O)c1ccc(Nc2nn(C3COCCC[C@H]3C#N)c3cc[nH]c(=O)c23)cc1` (single isomer, unassigned) [Example 1-24, (3R,4R or 3S,4S)-3-(3-{[4-(tert-butylsulfonyl)phenyl]amino}-4-oxo-4,5-dihydro-1H-pyrazolo[4,3-c]pyridin-1-yl)oxepane-4-carbonitrile], the IC50 is 14.7 nM on JAK2 (setting [1]) and 12.4 nM on JAK1.
As to `CC(C)CNC(c1ccc(Nc2nn([C@H]3COCC[C@@H]3C#N)c3cc[nH]c(=O)c23)cc1)C(F)(F)F` (single isomer, unassigned) [Example 1-90, (3R,4S)-3-{4-oxo-3-[(4-{(1S or 1R)-2,2,2-trifluoro-1-[(2-methylpropyl)amino]ethyl}phenyl)amino]-4,5-dihydro-1H-pyrazolo[4,3-c]pyridin-1-yl}tetrahydro-2H-pyran-4-carbonitrile], the IC50 on JAK2 (setting [1]) came to 0.4 nM; on JAK1, 0.21 nM.
Turning to `CC(O)(c1ccc(Nc2nn([C@H]3COCC[C@@H]3C#N)c3cc[nH]c(=O)c23)cc1)C(F)(F)F` (single isomer, unassigned) [Example 2-3, (3R,4S)-3-[4-oxo-3-({4-[(1R or 1S)-2,2,2-trifluoro-1-hydroxy-1-methylethyl]phenyl}amino)-4,5-dihydro-1H-pyrazolo[4,3-c]pyridin-1-yl]tetrahydro-2H-pyran-4-carbonitrile], the IC50 amounted to 0.39 nM at JAK2 (setting [1]) and 0.06 nM at JAK1.
For `CC(c1ccc(Nc2nn([C@H]3COCC[C@@H]3C#N)c3cc[nH]c(=O)c23)cc1)n1nccn1` (single isomer, unassigned) [Example 1-44, (3R,4S)-3-[4-oxo-3-({4-[(1S or 1R)-1-(2H-1,2,3-triazol-2-yl)ethyl]phenyl}amino)-4,5-dihydro-1H-pyrazolo[4,3-c]pyridin-1-yl]tetrahydro-2H-pyran-4-carbonitrile], in that order: 0.18 nM and 0.12 nM.
Regarding `COC(=N)c1cc(Nc2nn([C@H]3COCC[C@@H]3C#N)c3cc[nH]c(=O)c23)ccc1O` [Example 1-16, methyl 5-({1-[(3R,4S)-4-cyanotetrahydro-2H-pyran-3-yl]-4-oxo-4,5-dihydro-1H-pyrazolo[4,3-c]pyridin-3-yl}amino)-2-hydroxybenzenecarboximidoate], the IC50 came to 5.04 nM on JAK2 (setting [2]) and 0.36 nM on JAK1.
Take `CC1(C)CC1NC(c1ccc(Nc2nn([C@H]3COCC[C@@H]3C#N)c3cc[nH]c(=O)c23)cc1)C(F)(F)F` (single isomer, unassigned) [Example 1-48, (3R,4S)-3-{3-[(4S or 4R-{1S or 1R-[(2,2-dimethylcyclopropyl)amino]-2,2,2-trifluoroethyl}phenyl)amino]-4-oxo-4,5-dihydro-1H-pyrazolo[4,3-c]pyridin-1-yl}tetrahydro-2H-pyran-4-carbonitrile]: the IC50 on JAK2 (setting [1]) was 1.73 nM; on JAK1, 0.65 nM.
For `COC(C)(c1ccc(Nc2nn([C@H]3COCC[C@@H]3C#N)c3cc[nH]c(=O)c23)cc1)C(F)(F)F` (single isomer, unassigned) [Example 1-33, (3R,4S)-3-(4-oxo-3-((4-((S or R)-1,1,1-trifluoro-2-methoxypropan-2-yl)phenyl)amino)-4,5-dihydro-1H-pyrazolo[4,3-c]pyridin-1-yl)tetrahydro-2H-pyran-4-carbonitrile], the IC50 was 0.09 nM on JAK2 (setting [1]) and 0.04 nM on JAK1.
`CN(C)S(=O)(=O)c1ccc(Nc2nn([C@H]3COCC[C@@H]3C#N)c3cc[nH]c(=O)c23)cn1` [Example 1-67, 5-({1-[(3R,4S)-4-cyanotetrahydro-2H-pyran-3-yl]-4-oxo-4,5-dihydro-1H-pyrazolo[4,3-c]pyridin-3-yl}amino)-N,N-dimethylpyridine-2-sulfonamide]: the results for the IC50 on JAK2 (setting [2]) and on JAK1 were 1.92 nM and 0.7 nM, respectively.
For `Cc1cc(Nc2nn([C@H]3COCC[C@@H]3C#N)c3cc[nH]c(=O)c23)ccc1C(=O)N1CCC(F)(F)CC1` [Example 1-35, (3R,4S)-3-(3-((4-(4,4-difluoropiperidine-1-carbonyl)-3-methylphenyl)amino)-4-oxo-4,5-dihydro-1H-pyrazolo[4,3-c]pyridin-1-yl)tetrahydro-2H-pyran-4-carbonitrile] the same measures were 0.16 nM and 0.12 nM.
As for `CC1(C)CC1NC(c1ccc(Nc2nn([C@H]3COCC[C@@H]3C#N)c3cc[nH]c(=O)c23)cc1)C(F)(F)F` (single isomer, unassigned) [Example 1-49, (3R,4S)-3-{3-[(4S or 4R-{1S or 1R-[(2,2-dimethylcyclopropyl)amino]-2,2,2-trifluoroethyl}phenyl)amino]-4-oxo-4,5-dihydro-1H-pyrazolo[4,3-c]pyridin-1-yl}tetrahydro-2H-pyran-4-carbonitrile], the IC50 is 0.3 nM at JAK2 (setting [1]) and 0.18 nM at JAK1.
`CC(C)(C)S(=O)(=O)c1ccc(Nc2nn([C@@H]3COCCC[C@H]3C#N)c3cc[nH]c(=O)c23)cc1` (single isomer, unassigned) [Example 1-23, (3S,4R or 3R,4S)-3-(3-{[4-(tert-butylsulfonyl)phenyl]amino}-4-oxo-4,5-dihydro-1H-pyrazolo[4,3-c]pyridin-1-yl)oxepane-4-carbonitrile]: the values for the IC50 at JAK2 (setting [1]) and on JAK1 were 0.69 nM and 0.25 nM, respectively.
For `CC(C)S(=O)(=O)c1ccc(Nc2nn([C@H]3COCC[C@@H]3C#N)c3cc[nH]c(=O)c23)cc1` [Example 1-11, (3R,4S)-3-(3-((4-(isopropylsulfonyl)phenyl)amino)-4-oxo-4,5-dihydro-1H-pyrazolo[4,3-c]pyridin-1-yl)tetrahydro-2H-pyran-4-carbonitrile], the figures for the IC50 at JAK2 (setting [2]) and at JAK1 were 0.34 nM and 0.09 nM, respectively.
For the compound `CN(C)C(c1ccc(Nc2nn([C@H]3COCC[C@@H]3C#N)c3cc[nH]c(=O)c23)cc1)C(F)(F)F` (single isomer, unassigned) [Example 1-18, (3R,4S)-3-[3-({4-[(1R, or 1S)-1-(dimethylamino)-2,2,2-trifluoroethyl]phenyl}amino)-4-oxo-4,5-dihydro-1H-pyrazolo[4,3-c]pyridin-1-yl]tetrahydro-2H-pyran-4-carbonitrile], the IC50 at JAK2 (setting [1]) worked out at 0.13 nM; on JAK1, 0.07 nM.
Take `N#Cc1ccc(Nc2nn([C@H]3COCC[C@@H]3C#N)c3cc[nH]c(=O)c23)cc1F` [Example 1-32, (3R,4S)-3-{3-[(4-cyano-3-fluorophenyl)amino]-4-oxo-4,5-dihydro-1H-pyrazolo[4,3-c]pyridin-1-yl}tetrahydro-2H-pyran-4-carbonitrile]: the values for the IC50 at JAK2 (setting [2]) and on JAK1 were 2.11 nM and 0.24 nM, respectively.
As to `N#C[C@H]1CCOC[C@@H]1n1nc(Nc2ccc(S(=O)(=O)N3CCC3)cc2)c2c(=O)[nH]ccc21` [Example 1-69, (3R,4S)-3-(3-{[4-(azetidin-1-ylsulfonyl)phenyl]amino}-4-oxo-4,5-dihydro-1H-pyrazolo[4,3-c]pyridin-1-yl)tetrahydro-2H-pyran-4-carbonitrile], the IC50 came out at 0.3 nM at JAK2 (setting [2]) and 0.08 nM at JAK1.
On to `CN1Cc2cc(Nc3nn([C@H]4COCC[C@@H]4C#N)c4cc[nH]c(=O)c34)ccc2S1(=O)=O` [Example 1-4, (3R,4S)-3-(3-((2-methyl-1,1-dioxido-2,3-dihydrobenzo[d]isothiazol-5-yl)amino)-4-oxo-4,5-dihydro-1H-pyrazolo[4,3-c]pyridin-1-yl)tetrahydro-2H-pyran-4-carbonitrile], for which the figures for the IC50 at JAK2 (setting [2]) and on JAK1 were 0.34 nM and 0.04 nM, respectively.
